What was measured:
Assay in all cases: AUC of viability dose-response curve (% viability x log10 dose units); higher = less sensitive
Details in all cases: 48 h
NOMO1 = test system: NOMO1
In short: (§1)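 Viability of medium-adapted leukemia cells was measured by CellTiter-Glo One luminescence after 48 h at 37°C with library compounds in DMSO. Doses were 11 threefold steps from 47 μM to 0.79 nM, in 1536-well plates at 500 or 1000 cells/well. Signals were normalised per plate to DMSO and cell-free wells and fitted with a four-parameter log-logistic model on log10 dose. Area under the curve was integrated by trapezoidal rule, with curves exceeding full viability scaled and failed quality-control curves removed.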

SEM cells = test system: SEM cells
In short: as §1

P12-Ichikawa = test system: P12-Ichikawa
In short: as §1

[1] = RPMI 5 mM glucose + 10% dialyzed FBS

Row | SMILES | AUC of viability dose-response curve (NOMO1; HPLM + 10% dialyzed FBS) | AUC of viability dose-response curve (NOMO1; RPMI 5 mM glucose + 10% FBS) | AUC of viability dose-response curve (NOMO1; [1]) | AUC of viability dose-response curve (SEM cells; HPLM + 10% dialyzed FBS) | AUC of viability dose-response curve (SEM cells; RPMI 5 mM glucose + 10% FBS) | AUC of viability dose-response curve (SEM cells; [1]) | AUC of viability dose-response curve (P12-Ichikawa; HPLM + 10% dialyzed FBS) | AUC of viability dose-response curve (P12-Ichikawa; RPMI 5 mM glucose + 10% FBS) | AUC of viability dose-response curve (P12-Ichikawa; [1])
1 | OC1CCC(Nc2ncc3nc(Nc4c(F)cc(F)cc4F)n([C@@H]4CCOC4)c3n2)CC1 (stereo partly drawn) | 465 | 446 | 448 | 474 | 452 | 458 | 468 | 465 | 468
2 | Cn1c(CNc2ccc(C(=N)N)cc2)nc2cc(C(=O)N(CCC(=O)O)c3ccccn3)ccc21 | 441 | 443 | 440 | 424 | 469 | 451 | 448 | 472 | 465
3 | COc1cc(OC)c(/C=C/[S+](=O)([O-])Cc2ccc(OC)c(NCC(=O)[O][Na])c2)c(OC)c1 | 315 | 309 | 278 | 287 | 269 | 249 | 271 | 269 | 257
4 | FC(F)c1nc2ccccc2n1-c1nc(N2CCOCC2)nc(N2CCOCC2)n1 | 260 | 329 | 333 | 325 | 351 | 326 | 413 | 367 | 394
5 | C[C@]12CC[C@@H]3c4ccc(O)cc4C[C@@H](CCCCCCCCC[S+]([O-])CCCC(F)(F)C(F)(F)F)[C@H]3[C@@H]1CC[C@@H]2O (stereo partly drawn) | 428 | 470 | 429 | 475 | 411 | 459 | 464 | 462 | 455
6 | COC1=CC=C(C=C1)C/2=C/OC3=C(C(=CC(=C3)O)O)C2=O | 460 | 474 | 453 | 463 | 436 | 435 | 465 | 441 | 453
7 | COc1ccc(-c2nc(N3CCOCC3)c3sc(CN(C)c4ncc(C(=O)NO)cn4)cc3n2)cn1 | 156 | 169 | 166 | 136 | 113 | 144 | 163 | 162 | 172
8 | C[C@@H]1[C@H](O)[C@@H](C)/C=C/C=C/C=C/C=C/C=C/C=C/C=C/[C@H](O[C@@H]2O[C@H](C)[C@@H](O)[C@H](N)[C@@H]2O)C[C@@H]2O[C@](O)(C[C@@H](O)C[C@@H](O)[C@H](O)CC[C@@H](O)C[C@@H](O)CC(=O)O[C@H]1C)C[C@H](O)[C@H]2C(=O)O | 422 | 452 | 461 | 450 | 443 | 465 | 468 | 458 | 465
9 | C[C@@]12C[C@@]3(O)O[C@@H](O1)[C@]1(COC(=O)c4ccccc4)[C@H]3C[C@@]12O[C@@H]1O[C@H](CO)[C@@H](O)[C@H](O)[C@H]1O | 436 | 463 | 463 | 456 | 454 | 463 | 469 | 467 | 469
10 | COc1ccc(-c2ccc3c(N4CCOC[C@@H]4C)nc(N4CCOC[C@@H]4C)nc3n2)cc1CO | 293 | 359 | 337 | 310 | 310 | 316 | 353 | 296 | 311
11 | O=C(Nc1ccc(F)c(C(F)(F)F)c1)Nc1nnc(-c2ccncc2)s1 | 456 | 444 | 466 | 467 | 464 | 467 | 469 | 451 | 465
12 | Cc1[nH]c2ccccc2c1CCNCc1ccc(/C=C/C(=O)NO)cc1 | 300 | 311 | 312 | 265 | 251 | 273 | 298 | 292 | 304
13 | C[C@]1(c2nc3c(C(N)=O)cccc3[nH]2)CCCN1 | 368 | 349 | 374 | 372 | 393 | 352 | 399 | 353 | 356
14 | COc1ccc(C2CNC(=O)C2)cc1OC1CCCC1 (stereo not drawn) | 465 | 460 | 465 | 455 | 453 | 448 | 470 | 472 | 450
15 | NC/1=N/C2=C([NH]C=N2)C(=S)N1 | 457 | 451 | 402 | 458 | 457 | 345 | 441 | 433 | 409
16 | CC(C)=CC[C@@H](O)C/1=C/C(=O)C2=C(O)C=CC(=C2C1=O)O | 379 | 354 | 368 | 449 | 407 | 431 | 413 | 415 | 434
17 | CCOC(=O)\C1=C(/C)N\C2=C(C1C3=CC=C(C=C3)C4=CC=CC=C4)\C(=O)CC(C)(C)C2 (stereo not drawn) | 438 | 465 | 447 | 461 | 451 | 450 | 457 | 457 | 444
18 | C[C@@H]\1CC(=O)N\N=C1C2=CC=C(NN=C(C#N)C#N)C=C2 | 426 | 410 | 413 | 397 | 368 | 393 | 424 | 417 | 392
19 | CC(N)C12CC3CC(CC(C3)C1)C2 (stereo not drawn) | 453 | 437 | 443 | 468 | 447 | 477 | 449 | 456 | 455
20 | N#Cc1c(NC(=O)c2cccc3ccccc23)sc2c1CCCC2 | 345 | 339 | 346 | 318 | 304 | 310 | 325 | 325 | 346
21 | O=C(O[C@H]1C[C@H]2CC[C@@H](C1)[N+]21CCCC1)C(O)(c1ccccc1)c1ccccc1.[Cl-] | 472 | 462 | 467 | 460 | 437 | 449 | 461 | 464 | 470
22 | CCC(C)(C)c1ccc(CC(C)CN2C[C@@H](C)O[C@@H](C)C2)cc1 (stereo partly drawn) | 422 | 368 | 397 | 356 | 369 | 398 | 424 | 417 | 380
23 | CC(C)C(=O)Nc1ccc([N+](=O)[O-])c(C(F)(F)F)c1 | 332 | 309 | 320 | 453 | 472 | 461 | 350 | 360 | 378
24 | CN1\C(=C(\O)C2=CC=CC=C2[S+]1([O-])=O)C(=O)NC3=NC=C(C)S3 | 476 | 449 | 410 | 447 | 427 | 430 | 416 | 392 | 420
25 | O=C(O)c1ccc2c(c1)nc(Nc1cccc(Cl)c1)c1ccncc12 | 425 | 437 | 441 | 421 | 412 | 406 | 453 | 437 | 429
26 | COC(=O)[C@@H]1[C@H]2C[C@H]3c4[nH]c5ccccc5c4CCN3C[C@@H]2CC[C@@H]1O | 356 | 325 | 350 | 440 | 441 | 451 | 373 | 378 | 402
27 | O=C(Nc1ccccc1-c1cn2c(CN3CCNCC3)csc2n1)c1cnc2ccccc2n1 | 381 | 350 | 391 | 364 | 366 | 310 | 388 | 369 | 361

Reference: the supplement of paper PMC11451515
